Assay results as given in patent US12344610B2, “APOL1 inhibitors and methods of use” (Maze Therapeutics, Inc., priority 2022, dated 2025).

Experiments:
Format in all cases: cell-based
[1] = tested on: HEK293 clonal cell line overexpressing APOL1 G1; experiment: APOL1 G1 HEK293 cell rescue assay (Example B3); conditions: Homo sapiens, HEK293, HEK293 clonal line overexpressing APOL1 G1; geometric mean of at least 2 runs; † = single run; ¥ = concentration at 50% rescue estimated (no sigmoidal curve)
Outline: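 Rescue of cell death caused by APOL1 G1 overexpression was measured in a clonal HEK293 line. Compounds were tested in duplicate on one plate, and EC50s were geometric means across at least two runs on different days. Some values are estimated 50%-rescue concentrations where curve fitting failed.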

[2] = tested on: Trypanosoma brucei Lister 427 VSG221 with APOL1 G0 recombinant protein; experiment: APOL1 G0 trypanosome cell rescue assay (Example B5); conditions: Trypanosoma brucei, 20 h, read-out: APOL1 G0 Trypanosome Rescue EC50, Trypanosoma brucei Lister 427 VSG221 with APOL1 G0 recombinant protein, 20 hours, CellTiter-Glo; geometric mean of at least 2 assay runs; † = single assay run
Description: (§1) APOL1 G0/G1/G2 viability assay for measurement of cytotoxicity reversal by compound in trypanosomes (APOL1 G0/G1/G2 trypanosome cell rescue assay).
(§2) APOL1 protein expression and purification. The mature from of APOL1 proteins, residues 28-398, were expressed from a pET28a vector with an N-terminal His-tag and TEV cleavage site. Proteins were expressed in Escherichia coli BL21-CodonPlus (DE3)-RIPL cells. Liter cultures of terrific broth were grown at 37° C. until an OD600 of ˜0.8 was reached and then induced with isopropyl β-D-1-thiogalactopyranoside (IPTG; final concentration of 500 μM). Afterwards, cultures were grown for 3 hours at 37° C. For protein purification, cell pellets were resuspended in lysis buffer (50 mM Tris, pH 8.5, 5 mM EDTA, 0.5 mM DTT, 0.5 mM PMSF) supplemented with a cocktail of protease inhibitors. Cells were lysed by sonication, centrifuged, and the resulting pellet was collected. The homogenized pellet was resuspended in wash buffer (50 mM Tris, pH 8.5, 0.5 M NaCl, 5 mM EDTA, 0.5 mM DTT, 0.5 mM PMSF, protease inhibitor cocktail) and collected by centrifugation. Inclusion body dissolution was then conducted as previously reported (PNAS 112(9) (2015) 2894-2899; www.pnas.org/cgi/doi/10.1073/pnas.1421953112; herein incorporated by reference in its entirety). The solubilized APOL1 protein was applied to a nickel column (HisTrap, GE Life Sciences) preequilibrated in buffer A (50 mM Tris, pH 8.5, 0.15 M NaCl, 1% zwittergent 3-14, protease inhibitor cocktail). The resin was washed with buffer B (50 mM Tris, pH 8.5, 0.15 M NaCl, 0.1% DDM) and TEV cleavage was conducted on column overnight. Afterwards, the column was washed with buffer B, followed by His-washing buffer (50 mM Tris, pH 8.5, 0.15 M NaCl, 0.1% DDM, 10 mM imidazole). The protein was then removed from the resin using His-elution buffer (50 mM Tris, pH 8.5, 0.15 M NaCl, 0.1% DDM, 250 mM imidazole). The sample was further purified by size exclusion chromatography using a Superdex 200 Increase column (GE Life Sciences) in 50 mM Tris, pH 8.5, 0.15 M NaCl, and 0.1% DDM buffer. All APOL1 proteins (G0, G1, and G2) were generated at Viva Biotech (Shanghai) Ltd.
(§3) Modified HMI-9 media preparation (https://tryps.rockefeller.edu/trypsru2_culture_media_preparation.html; herein incorporated by reference in its entirety). Trypanosomes were cultured in modified HMI-9 media consisting of IMDM (ThermoFisher, 12440053), 10% heat-inactivated FBS (Gibco, 10082-147), 10% Serum Plus (Sigma-Aldrich, 14008C), 1×HMI-9 supplement stock, and 1% hypoxanthine stock. The 10×HMI-9 supplement stock was made by dissolving 280 mg bathocuproine disulfonic acid (Sigma-Aldrich, 146625), 1820 mg cysteine (add after bathocuproine) (Sigma-Aldrich, 30089), 1100 mg pyruvic acid (Sigma-Aldrich, 107360), 100 mg uracil (Sigma-Aldrich, U0750), 100 mg cytosine (Sigma-Aldrich, C3506) and 140 μL 2-mercaptoethanol (Sigma-Aldrich, M3148) in 1000 mL of water. The resulting solution was aliquoted and stored at −20° C. The hypoxanthine stock was made by dissolving 4 g of NaOH into 1000 mL of water. Afterwards, 13.6 g hypoxanthine (Sigma-Aldrich, H9377) was added to this mixture. The resulting solution was aliquoted and stored at −20° C.
(§4) Assay Setup. Trypanosoma brucei Lister 427 VSG221 (ATCC, PRA-382) cells were cultured in modified HMI-9 media. All experiments were performed in 384-well, white, solid bottom, tissue culture treated plates (Greiner, 781080). Assay ready plates were generated with duplicate 11-point compound dilution series that consisted of 2-fold stepwise dilutions (0.4% DMSO final). To each well, was added 20 μL of 2 μg/mL of APOL1 G0, G1, or G2 recombinant protein in modified HMI-9 media using a MultiDrop Combi (final APOL1 protein concentration=[…]). Trypanosomes were counted using a hemacytometer and diluted in modified HMI-9 media to a concentration of 1.25×10^4 cell/mL. […]

[3] = tested on: Trypanosoma brucei Lister 427 VSG221 with APOL1 G2 recombinant protein; experiment: APOL1 G2 trypanosome cell rescue assay (Example B5); conditions: Trypanosoma brucei, 20 h, read-out: APOL1 G2 Trypanosome Rescue EC50, Trypanosoma brucei Lister 427 VSG221 with APOL1 G2 recombinant protein, 20 hours, CellTiter-Glo; geometric mean of at least 2 assay runs; † = single assay run
Description: as §1, §2, §3, §4

[4] = tested on: Trypanosoma brucei Lister 427 VSG221 with APOL1 G1 recombinant protein; experiment: APOL1 G1 trypanosome cell rescue assay (Example B5); conditions: Trypanosoma brucei, 20 h, read-out: APOL1 G1 Trypanosome Rescue EC50, Trypanosoma brucei Lister 427 VSG221 with APOL1 G1 recombinant protein, 20 hours, CellTiter-Glo; geometric mean of at least 2 assay runs; † = single assay run
Description: as §1, §2, §3, §4

[5] = tested on: HEK293 cells overexpressing APOL1 G2; experiment: APOL1 G2 HEK293 cell rescue assay (reversal of cell death caused by overexpression of APOL1); conditions: Homo sapiens, HEK293, HEK293 overexpressing APOL1 G2; geometric mean of at least 2 assay runs; † = single assay run
Outline: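 Each compound tested in duplicate wells on one plate per run, with values usually the geometric mean across at least two runs on different days, occasionally from one run only. Read-out: concentration giving half-maximal rescue of APOL1 G2 overexpression-induced death of HEK293 cells.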

O=C1Nc2ccc(Cl)cc2C12CCN(CCOc1cnc(C3(O)CC3)nc1)CC2 [Compound 308, 5-chloro-1′-(2-{[2-(1-hydroxycyclopropyl)pyrimidin-5-yl]oxy}ethyl)-1,2-dihydrospiro[indole-3,4′-piperidin]-2-one]
EC50 [1]: 196 nM | EC50 [2]: 335 nM | EC50 [3]: 150 nM | EC50 [4]: 435 nM | EC50 [5]: 112 nM

C[C@]1(O)C[C@@H](N2C(=O)CCc3cc(OCCN4CCC5(CC4)C(=O)Nc4c(I)cc(Cl)cc45)cnc32)C1 [Compound 329, 5-chloro-7-iodo-1′-[2-({7-oxo-8-[(cis)-3-hydroxy-3-methylcyclobutyl]-5,6,7,8-tetrahydro-1,8-naphthyridin-3-yl}oxy)ethyl]-1,2-dihydrospiro[indole-3,4′-piperidin]-2-one]
EC50 [1]: 96.1 nM | EC50 [2]: 199 nM | EC50 [3]: 67.3 nM | EC50 [4]: 240 nM | EC50 [5]: 56.9 nM

CC1(O)CN(c2ncnc3cc(OCCN4CCC5(CC4)C(=O)Nc4ccc(Cl)cc45)cnc23)C1 [Compound 364, 5-chloro-1′-(2-{[4-(3-hydroxy-3-methylazetidin-1-yl)pyrido[3,2-d]pyrimidin-7-yl]oxy}ethyl)-1,2-dihydrospiro[indole-3,4′-piperidin]-2-one]
EC50 [1]: 239 nM | EC50 [2]: 155 nM | EC50 [3]: 92.3 nM | EC50 [4]: 203 nM | EC50 [5]: 112 nM

O=C1Nc2ccc(Cl)cc2C12CCN(CCOc1cnc3c(N4CC(O)C4)ncnc3c1)CC2 [Compound 366, 5-chloro-1′-(2-{[4-(3-hydroxyazetidin-1-yl)pyrido[3,2-d]pyrimidin-7-yl]oxy}ethyl)-1,2-dihydrospiro[indole-3,4′-piperidin]-2-one]
EC50 [1]: 136 nM | EC50 [2]: 66.4 nM | EC50 [3]: 32.4 nM | EC50 [4]: 87.3 nM | EC50 [5]: 80 nM

C[C@]1(O)C[C@@H](n2cnc3cc(OCCN4CCC5(CC4)C(=O)Nc4ccc(Cl)cc45)cnc32)C1 [Compound 367, 5-chloro-1′-[2-({3-[(cis)-3-hydroxy-3-methylcyclobutyl]-3H-imidazo[4,5-b]pyridin-6-yl}oxy)ethyl]-1,2-dihydrospiro[indole-3,4′-piperidin]-2-one]
EC50 [1]: 145 nM | EC50 [2]: 231 nM | EC50 [3]: 106 nM | EC50 [4]: 323 nM | EC50 [5]: 87.7 nM

C[C@]1(O)C[C@@H](N2C(=O)CCc3cc(OCCN4CCC5(CC4)C(=O)Nc4ccc(C#N)cc45)cnc32)C1 [Compound 404, 2-oxo-1′-[2-({7-oxo-8-[(cis)-3-hydroxy-3-methylcyclobutyl]-5,6,7,8-tetrahydro-1,8-naphthyridin-3-yl}oxy)ethyl]-1,2-dihydrospiro[indole-3,4′-piperidine]-5-carbonitrile]
EC50 [1]: 247 nM | EC50 [2]: 425 nM | EC50 [3]: 210 nM | EC50 [4]: 554 nM | EC50 [5]: 129 nM

CC1(O)CN(c2ncc(OCCN3CCC4(CC3)C(=O)Nc3ccc(Cl)cc34)cc2C(F)(F)F)C1 [Compound 405, 5-chloro-1′-(2-{[6-(3-hydroxy-3-methylazetidin-1-yl)-5-(trifluoromethyl)pyridin-3-yl]oxy}ethyl)-1,2-dihydrospiro[indole-3,4′-piperidin]-2-one]
EC50 [1]: 19.2 nM | EC50 [2]: 20 nM | EC50 [3]: 8.06 nM | EC50 [4]: 21.6 nM | EC50 [5]: 9.59 nM

C[C@]1(O)C[C@@H](n2c(=O)ccc3cc(OCCN4CCC5(CC4)C(=O)Nc4ccc(C#N)cc45)cnc32)C1 [Compound 406, 2-oxo-1′-[2-({7-oxo-8-[(cis)-3-hydroxy-3-methylcyclobutyl]-7,8-dihydro-1,8-naphthyridin-3-yl}oxy)ethyl]-1,2-dihydrospiro[indole-3,4′-piperidine]-5-carbonitrile]
EC50 [1]: 109 nM | EC50 [2]: 107 nM | EC50 [3]: 51.1 nM | EC50 [4]: 128 nM | EC50 [5]: 58.3 nM

CC1(O)CC(n2ncc3cc(OCCN4CCC5(CC4)C(=O)Nc4ccc(Cl)cc45)cnc32)C1 (stereo not drawn) [Compound 407, 5-chloro-1′-(2-{[1-(3-hydroxy-3-methylcyclobutyl)-1H-pyrazolo[3,4-b]pyridin-5-yl]oxy}ethyl)-1,2-dihydrospiro[indole-3,4′-piperidin]-2-one]
EC50 [1]: 46.3 nM | EC50 [2]: 72.4 nM | EC50 [3]: 33 nM | EC50 [4]: 99.7 nM | EC50 [5]: 24.1 nM

CC1(C)OCC(c2ncc(OCCN3CCC4(CC3)C(=O)Nc3ccc(Cl)cc34)cn2)O1 (stereo not drawn) [Compound 441, 5-chloro-1′-(2-{[2-(2,2-dimethyl-1,3-dioxolan-4-yl)pyrimidin-5-yl]oxy}ethyl)-1,2-dihydrospiro[indole-3,4′-piperidin]-2-one]
EC50 [1]: 96.1 nM | EC50 [2]: 144 nM | EC50 [3]: 78.3 nM | EC50 [4]: 215 nM | EC50 [5]: 57.4 nM

C[C@]1(O)C[C@@H](c2nc3cc(OCCN4CCC5(CC4)C(=O)Nc4ccc(Cl)cc45)cc(C(F)(F)F)c3[nH]2)C1 [Compound 466, 5-chloro-1′-[2-({2-[(cis)-3-hydroxy-3-methylcyclobutyl]-7-(trifluoromethyl)-1H-1,3-benzodiazol-5-yl}oxy)ethyl]-1,2-dihydrospiro[indole-3,4′-piperidin]-2-one]
EC50 [1]: 8.71 nM | EC50 [2]: 19.4 nM | EC50 [3]: 11.9 nM | EC50 [4]: 30.6 nM | EC50 [5]: 4.26 nM

C[C@]1(O)C[C@@H](n2c(=O)n(CO)c3cc(OCCN4CCC5(CC4)C(=O)Nc4ccc(Cl)cc45)cc(C(F)(F)F)c32)C1 [Compound 467, 5-chloro-1′-(2-{[3-(hydroxymethyl)-2-oxo-1-[(cis)-3-hydroxy-3-methylcyclobutyl]-7-(trifluoromethyl)-2,3-dihydro-1H-1,3-benzodiazol-5-yl]oxy}ethyl)-1,2-dihydrospiro[indole-3,4′-piperidin]-2-one]
EC50 [1]: 14.3 nM | EC50 [2]: 3.74 nM | EC50 [3]: 2.24 nM | EC50 [4]: 6.03 nM | EC50 [5]: 4.74 nM
